Measurements: US11850277B2, “Treatment of lower urinary tract epithelium with glucagon like peptide 2” (URIGEN N.A., priority 2017, dated 2023)

Key:
GLP-2R = target: T1, GLP-2R (Rattus norvegicus, UniProt Q9Z0W0); details: iv injected radiolabeled GLP-2, autoradiography; cited from earlier work
T1 construct: host or cells: Tissues of the living animal (kidneys, liver, gastrointestinal tract and others), endogenous receptor
T1 sequence (Q9Z0W0 1-550): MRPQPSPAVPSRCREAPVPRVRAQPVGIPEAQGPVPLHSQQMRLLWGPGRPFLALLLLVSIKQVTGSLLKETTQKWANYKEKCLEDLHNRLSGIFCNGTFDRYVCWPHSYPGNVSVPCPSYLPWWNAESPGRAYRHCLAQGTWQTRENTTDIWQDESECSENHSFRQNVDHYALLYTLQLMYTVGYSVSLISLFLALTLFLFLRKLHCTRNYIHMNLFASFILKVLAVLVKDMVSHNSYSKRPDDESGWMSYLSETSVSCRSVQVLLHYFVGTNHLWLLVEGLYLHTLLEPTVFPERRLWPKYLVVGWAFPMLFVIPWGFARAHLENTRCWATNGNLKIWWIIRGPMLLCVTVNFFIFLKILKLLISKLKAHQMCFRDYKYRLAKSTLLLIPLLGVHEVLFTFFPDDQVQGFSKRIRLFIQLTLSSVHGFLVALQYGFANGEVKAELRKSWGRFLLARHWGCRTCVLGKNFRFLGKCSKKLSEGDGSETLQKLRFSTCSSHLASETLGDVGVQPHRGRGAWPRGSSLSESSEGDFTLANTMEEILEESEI

intestinal epithelium = details: normal and treated rat inflammatory bowel disease models and ischemic reperfusion injured mice; cited from earlier work
[1] = in vivo; cited from earlier work
[2] = tested on: non-tumorigenic primary human bladder epithelial cells (ATCC-PCS-420-010); test: BrdU cell proliferation assay (BrdU incorporation into DNA); format: cell-based; details: cells starved 48 hours in low nutrient (0.5%) medium; for DNA synthesis as measured by BrdU incorporation: BrdU added concurrently
Protocol: FIG. 1 presents a histogram plot depicting results from a BrdU cell proliferation assay. Primary human bladder epithelial cells were nutrient starved as indicated and treated with GLP-2 for 24 hours at the indicated concentrations
FIG. 2 presents a histogram plot depicting results from a BrdU cell proliferation assay. Primary human bladder epithelial cells were nutrient starved as indicated and treated with GLP-2 for 48 hours at the indicated concentrations.
URG-801/GLP-2 mediated cell proliferation was detected by assaying BrdU incorporation into DNA using non-tumorigenic primary human bladder epithelial cells. An exemplary non-tumorigenic primary human bladder epithelial cell line is ATCC-PCS-420-010, which may be purchased from the American Type Culture Collection (ATCC) repository. Briefly, ATCC-PCS-420-010 cells were starved for 48 hours in low nutrient (0.5%) medium and then GLP-2 was added to the culture medium at the indicated concentrations and the cells were cultured for an additional 24 hours in the presence of GLP-2. As indicated in the timeline presented in FIG. 1, bromodeoxyuridine (BrdU) was added concurrently with the GLP-2.
To investigate further parameters affecting GLP-2 induced bladder epithelial cell proliferation, the duration of culturing in the presence of GLP-2 was extended. In this experimental protocol, ATCC-PCS-420-010 cells were starved for 48 hours in low nutrient (0.5%) medium and then GLP-2 was added to the culture medium at the indicated concentrations and the cells were cultured for ab additional 48 hours in the presence of GLP-2. As indicated in the timeline presented in FIG. 2, BrdU was added concurrently with the GLP-2.

[3] = phase IIB study; cited from earlier work
[4] = then cultured 48 hours with GLP-2, FIG. 2

For “HADGSFSDEMNTILDNLAARDFINWLIQTKITD [GLP-2]”, the “binding to submandibular gland, lung, brain, heart, adipose tissue, skeletal muscle, uterus, ovary, urinary bladder, adrenal gland, thyroid gland, or skin” value (GLP-2R) is given as “does not bind”, the “tissues to which radiolabeled GLP-2 binds” value (GLP-2R) is given as “binds predominantly to the kidneys, liver, and gastrointestinal tract” and the “effect on intestinal/mucosal mass and damage” value (intestinal epithelium) is given as “enhanced intestinal/mucosal mass and attenuated damage”. For the same substance, the “half life in circulation” value [1] was 3 to 7 min, the “DNA synthesis as measured by BrdU incorporation” value ([2]; then cultured 24 hours with GLP-2, FIG. 1) was “dose dependent increase in DNA synthesis” and the “DNA synthesis as measured by BrdU incorporation” value [2, 4] was “dose dependent increase in DNA synthesis”. The “GLP-2 concentration at which BrdU incorporation peaked (bell shaped curve)” value [2, 4] was 0.1 µM.
For elsiglutide, the “efficacy in chemotherapy-induced diarrhea” value [3] is listed as “failed to reach statistical significance”.
